According to article PMC11556054, “Development and Synthesis of Bombesin-Based Radiopharmaceutical Precursors Modified with Knottin” (Modern Technologies in Medicine, 2024):

Tests used:
[1] = Radiochemical stability of 177Lu-labeled structures in 0.9% sodium chloride (radio-HPLC); type: physicochemical; settings: for radiochemical purity after 168 h: 168 h in 0.9% sodium chloride at 37°C
Method: Lutetium (^177Lu) chloride was used as a radioligand. […] The radioactivity of samples was measured with a gamma counter ISOMED 2010 (PTW, Germany). Labeling of the peptides was conducted on a Gaia/Luna complex (Elysia-Raytest, Germany). […] The system was controlled by the Clarity programs (Clarity Software, Great Britain). The labeled peptides were purified from free lutetium with the help of single-use cartridges C18 (ABX, Germany), the GAIA complex was used according to the gel-filtration principle.

HCT-116 culture = experiment: Binding of 6-FAM-labeled peptides to cell culture, fluorescence microscopy; type: cell-based, human; settings: 1 μmol/L, 3 h incubation, washed with cooled phosphate buffer, ImageJ, >300 cells
Method: (§1) A fluorescent dye 6-FAM in the form of amine (Lumiprob, Russia) was used for bonding analysis. The peptides were labeled according a standard manufacturer protocol: they were dissolved in 0.1 mol/L solution of NaHCO3, 6-FAM dye was then added to the solution and incubated for 30 min at room temperature in the dark. The peptides were purified from the dye excess using alcohol precipitation method. For purification, one part of the labeled peptide solution was mixed with nine parts of the 95% ethanol cooled at –20°C. Further, the peptides were incubated for 90 min at the same temperature (–20°C). After incubation, the cooled solution was centrifuged for 15 min at 13,000 rpm in the Allegra centrifuge (Beckman Coulter, USA). After centrifugation, the supernatant, containing the labeled peptide, was removed and dried using a vacuum concentrator (Eppendorf, Germany).
(§2) The peptides were bound to the cell cultures such as HCT-116, LnCap, PC-3, CHO-K1. The HCT-116 (human colorectal carcinoma cell line) and CHO-K1 (an epithelial cell line derived from the Chinese hamster ovary) were obtained from the Russian collection of cell cultures of vertebrate. The LnCap (PSMA-positive adenocarcinoma of the human prostate gland) and PC-3 cultures (PSMA-negative adenocarcinoma of the human prostate obtained from the bone metastases) were kindly provided by the N.N. Blokhin National Medical Research Center of Oncology (Russia). […]
(§3) 24 h before the experiment, the cultures were seeded in 24-well plates at the concentration of 100,000/well (LnCap — 150,000/well) to achieve the exponential stage. […] After the incubation, the medium with unbonded peptides was removed, the plate wells were washed with a cooled phosphate buffer and the fluorescence signal was recorded using an optical system equipped with a Nikon Ti-S microscope, DS-Qi1MC camera, S Plan Fluor ELWD 20×0.45 objective lenses, 465-495/515-555 nm filter (Nikon, Japan), and a computer with NIS-elements 4.0 software package.
(§4) The quantitative analysis of images was performed with an ImageJ program. The fluorescence signal from more than 300 cells was analyzed for each peptide. The fluorescence intensity was calculated by the following formula: total cell fluorescence = integral density – (area of the selected cell × mean fluorescence of the background indicators) as described by Khokhlova et al.. Shortly it looks like as follows: to obtain a fluorescence signal of each selected cell in the ImageJ program, the integral density parameter is taken, after that, the fluorescence of the background, equal in area to the cell size, is subtracted from this parameter. The fluorescence signal without peptides was registered as a control. The data were presented in the relative units of fluorescence.

LnCap culture = experiment: as above; type: cell-based, human; settings: 1 μmol/L, 3 h incubation, washed with cooled phosphate buffer, ImageJ, >300 cells
Method: as §1, §2, §3, §4

PC-3 culture = experiment: as above; type: cell-based, human; settings: 1 μmol/L, 3 h incubation, washed with cooled phosphate buffer, ImageJ, >300 cells
Method: as §1, §2, §3, §4

CHO-K1 culture = experiment: as above; type: cell-based, Chinese hamster; settings: 1 μmol/L, 3 h incubation, washed with cooled phosphate buffer, ImageJ, >300 cells, negative control culture
Method: as §1, with “After incubation, the cooled solution was centrifuged for 15 min at 13,000 rpm in the Allegra centrifuge (Beckman Coulter, USA). After centrifugation, the supernatant, containing the labeled peptide, was removed and dried using a vacuum concentrator (Eppendorf, Germany).” left out
as §3
The quantitative analysis of images was performed with an ImageJ program. The fluorescence signal from more than 300 cells was analyzed for each peptide. […] The fluorescence signal without peptides was registered as a control. […]

[2] = Chemical stability in 0.9% sodium chloride (HPLC chromatographic purity); type: physicochemical; settings: target peak area as % of total peak area, M±SD
Method: The analysis of the synthesis and purity control of the commercial PSMA-617 (Huayi Isotopes, China) was performed using chromatographic system Shimadzu LC-20AD XR (Shimadzu, Japan), equipped with spectrophotometric detector SPD-20A, according to the principle of the reverse-phase chromatography with the help of Luna C18 column (Dr. Maisch, Germany) and gradient elution of acetonitrile (Criochrome, Russia) from 95 to 0% and deionized water from 0 to 100% for 40 min. Mass-spectrometric analysis was conducted on the basis of MALDI-TOF mass-spectrometry using MALDI-TOF MS system, series FLEX (Bruker Daltonics, Germany). The peptide was purified by means of a high-performance liquid chromatography system NGC Quest 10 (Bio-Rad, USA) using Bio-Gel P-4 sorbent on the Econo-Column 1×30 cm (Bio-Rad, USA).
Lutetium (^177Lu) chloride was used as a radioligand. […] The radioactivity of samples was measured with a gamma counter ISOMED 2010 (PTW, Germany). Labeling of the peptides was conducted on a Gaia/Luna complex (Elysia-Raytest, Germany). […] The system was controlled by the Clarity programs (Clarity Software, Great Britain). The labeled peptides were purified from free lutetium with the help of single-use cartridges C18 (ABX, Germany), the GAIA complex was used according to the gel-filtration principle. Radiochemical stability was evaluated using the same parameters after 24, 48, 96 and 168 h in 0.9% sodium chloride at 37°C. Chemical stability was similarly fixed in 0.9% sodium chloride as described above. Chromatographic purity was calculated as a percentage of the target substance peak area in relation to the total area of the peaks on the chromatogram taken as 100%.

Compound | radiochemical purity after 24 h ([1]; 24 h in 0.9% sodium chloride at 37°C, radio-HPLC, M±SD) [%] | radiochemical purity after 48 h ([1]; 48 h in 0.9% sodium chloride at 37°C, radio-HPLC, M±SD) [%] | radiochemical purity after 168 h ([1]; radio-HPLC, M±SD) [%] | radiochemical purity, initial ([1]; initial (after labeling and C18 cartridge purification), radio-HPLC with GABI detector, acetonitrile/water (0.01% TFA) gradient, M±SD) [%] | binding to HCT-116 culture (fluorescence signal) (HCT-116 culture) | binding to LnCap culture (fluorescence signal) (LnCap culture) | binding to LnCap culture (fluorescence signal) (LnCap culture; listed as PSMA- 617) | binding to PC-3 culture (fluorescence signal) (PC-3 culture) | labeling result retained (radiochromatogram, Figure 4) after 168 h ([1]; after 168 h, radiochromatogram) | binding to CHO-K1 culture (fluorescence signal) (CHO-K1 culture) | chemical stability (chromatographic purity) after 24 h ([2]; 24 h in 0.9% sodium chloride, 37°C) [%] | chemical stability (chromatographic purity) after 168 h ([2]; 168 h in 0.9% sodium chloride, 37°C) [%] | chemical stability (chromatographic purity), initial ([2]; initial) [%]
O=C([O-])CN1CCN(CC(=O)[O-])CCN(CC(=O)NCC2CCC(C(=O)N[C@@H](Cc3ccc4ccccc4c3)C(=O)NCCCC[C@H](NC(=O)N[C@@H](CCC(=O)O)C(=O)O)C(=O)O)CC2)CCN(CC(=O)[O-])CC1.[177Lu+3] (some centres unmarked) [Lu-PSMA-617] | 39.6±4.1 | 19.7±2.9 | 9.2±0.7 | 99.7±3.2 | – | – | – | – | – | – | – | – | –
O=C(O)CC[C@H](NC(=O)N[C@@H](CCCCNC(=O)[C@H](Cc1ccc2ccccc2c1)NC(=O)[C@H]1CC[C@H](CNC(=O)CN2CCN(CC(=O)O)CCN(CC(=O)O)CCN(CC(=O)O)CC2)CC1)C(=O)O)C(=O)O [PSMA-617] | – | – | 9.2±0.7 | – | not bound | high degree of attachment | is binding to the LnCap culture | not bound | almost completely detached | not bound | 80.6±6.7 | 42.9±3.4 | 99.1±2.6
